US6372728B1, “Formulation for treatment of osteoporosis” (AstraZeneca AB, priority 1997, dated 2002)
Where two headings read alike, the source gives them in different places.

Experiments:
[1] = test system: bone resorption in the TPTX rats; settings: TPTX rat; for decrease in blood levels of Ca2+ (FIG. 2): 0.01-5 mgP/kg
Protocol: Female Spraque-Dawley rats from Molegaards Breeding Centre, Skensved, Denmark were used in the experiments. The animals were kept three by three in Macrolon cages, with free access to standard rat food pellets and tap water during the whole experiment. TPTX (Thyroparathyroidectomy) was preformed during anaesthesia with xylazine (Rompun®, 20 mg/ml, 0.25 ml/kg, intraperitoneally (i.p.)) and ketamine (Ketalar®, 50 mg/ml, 2.0 ml/kg, i.p.). After TPTX all rats were supplemented with 4 μg/kg thyroxin subcutaneously three times a week. TPTX adequacy was checked by determination of blood levels of Ca^2+ in a blood samples obtained from the vein of the tail 5-6 days after surgery. TPTX was considered successful if blood Ca^2+ was ≦80% of the concentration found in the rats before surgery.
Bone resorption in the TPTX rats was stimulated by the arotinoid ethyl p-[(E)-2-(5,6,7,8-tetrahydro-5,5,8,8-tetramethyl-2-naphtyl)penyl]-benzoate (RO 13-6298, a gift from Hoffman-La Roche AG, Basel, Switzerland). RO 13-6298 was administered subcutaneously once daily (100 μg/kg in 1 ml/kg solved in polyethylene glycol 300 containing 10% ethanol) for three consecutive days (days 1, 2 and 3), day 1 being five to six days after TPTX.

[2] = taken either concurrently with or 2 hours after breakfast; cited from earlier work

NCCCC(O)(P(=O)(O)O)P(=O)(O)O [alendronate, 4-amino-1-hydroxybutylidene-1,1-biphosphonic acid]
decrease of blood levels of Ca2+ compared to rats treated with only saline ([1]; 24 hours after the third oral dose, 1 mgP/kg, dissolved in saline (0.9% NaCl), free access to food): no significant decrease | decrease in blood levels of Ca2+ (FIG. 2) ([1]; saline i.v.): dose-dependent decrease | decrease in blood levels of Ca2+ (FIG. 2) ([1]; saline p.o.): dose-dependent decrease | impairment of availability [2]: > 85%
